Results on six compounds are retold here after patent publication US6335323B1, “Compositions for the treatment of peripheral neuropathies containing antidepressants and/or monoamine oxidase inhibitors and/or vitamin B12 and/or precursors or inducers of a neurotransmitter” (The WWK Trust, priority 1996, dated 2002).

Test [1] deals with diabetic neuropathy. The experiment in a line: Clinical case reports of patients with diabetic neuropathy. The test is classed as in vivo, human. As to conditions: single patient case reports; result in words. From the text:
The onset of neuropathy was thought to be due to poor control of diabetes. Neuropathic symptoms increased in severity over several years with development of severe diabetic neuropathy including diabetic amyotrophy, painful neuropathy with spasm, diabetic autonomic neuropathy and decreased sensation in the extremities, with numbing and loss of vibration sense. Electromyography confirmed the diagnosis of diabetic neuropathy.
A person with non-insulin dependent diabetes with very severe diabetic neuropathy, including diabetic amyotrophy and bedbound, resistant to current therapies, was commenced on vitamin B12 injections (1 mg at two-week intervals) and L-phenylalanine (as a metabolite of aspartame) 500 mg twice a day.
This case studied here is of the same person with diabetic neuropathy as in case #1, but after the original observation in case #1. The patient was subsequently continued on the same vitamin B12 injections and phenylalanine (500 mg twice daily) only.
A person with non-insulin dependent diabetes for 15 years with reasonable control, developed peripheral painful diabetic neuropathy of two months duration. […]
A person had severe diabetic peripheral neuropathy and resultant Charcot foot joints. […] Vibration sense initially could not be detected at a level below the knee.

Test [2] relates to diabetic neuropathy. As to conditions: cited from earlier work; for effectiveness against diabetic neuropathy symptoms: prior art statement.
Test [3] deals with vitamin B12 neuropathy and mild alcoholic neuropathy. Kind of test: Clinical case report, vitamin B12 neuropathy and mild alcoholic neuropathy (Case #4). As to conditions: result in words. It counts as in vivo, human. From the text: A person with vitamin B12 neuropathy and mild alcoholic neuropathy was studied. Clinical progress with vitamin B12 injections alone was insignificant. […] Previously they required the assistance of another person to walk.

For test [4], the system named is neuropathy related to HIV. The experiment in a line: Clinical case report, HIV related peripheral neuropathy (Case #9). It counts as in vivo, human. Conditions: result in words. Here is the method:
A person was HIV positive and complained of moderate peripheral neuropathy including painful neuropathy. They also had mild diabetes of short duration but clinically their neuropathy was diagnosed as that related to HIV. […] They were additionally commenced on L-phenylalanine 500 mg twice daily, whereafter they reported an approximate further 50% improvement in the symptoms of their painful neuropathy.

Consider `NC(=O)N1c2ccccc2C=Cc2ccccc21` [carbemazepine], for which the “clinical response of diabetic neuropathy signs and symptoms” value in test [1] is reported as “ineffective”. Also, the “effectiveness against diabetic neuropathy symptoms” value (shortened to “effectiveness”) in test [2] was “only to be mildly effective”.

Take `CCCCC/C=C\C/C=C\C/C=C\CCCCC(=O)O` [gamolenic acid]: the “effectiveness” value in test [2] is “may reduce symptoms”. Further, the “progression of abnormalities in nerve conduction studies” value in test [2] (recent clinical trials) is “prevent the progression”.

Turning to `CN(C)CC/C=C1\c2ccccc2CSc2ccccc21` [dothiepin], in test [1], the “clinical response of diabetic neuropathy signs and symptoms” value is “mild beneficial effect”.

Turning to vitamin B12, the clinical progress entry in test [3] is on record as “insignificant”.

Consider `CN(C)CCC=C1c2ccccc2CCc2ccccc21` [amitriptyline], for which the “clinical effect on neuropathy” value in test [4] is on record as “some mild beneficial effects”.

`Cc1cccc(C)c1OCC(C)N` (centres unmarked) [mexilitene]: the “effectiveness” value in test [2] was “only to be mildly effective”.
